Experimental data taken from US5268468A, “N-nitrosophenoxybenzenepropanamine and N-1-chloroethyl carbamate intermediates” (Hoechst-Roussel Pharmaceuticals Incorporated, priority 1993, dated 1993).
pIC50: −log10 of the molar value. Where a name gives a salt, the structure may show the parent alone.

Tested on: serotonin uptake in rat whole brain and hypothalamic synaptosomes
Assay: [3H]-Serotonin Uptake in Rat Whole Brain and Hypothalamic Synaptosomes
Assay type: biochemical, rat (male CR Wistar)
Conditions: rat whole brain or hypothalamic synaptosomes; 50 nM [3H]-5-hydroxytryptamine; 37° C., 5 minutes; pH 7.4; log-probit analysis; read-out: Inhibition of Serotonin Uptake (IC50)
Procedure: [^3 H]-Serotonin Uptake in Rat Whole Brain
A. Animals: Male CR Wistar rats (100-125 g).
1. Krebs-Henseleit Bicarbonate Buffer, pH 7.4 (KHBB):
Make a 1 liter batch, containing the following salts.
Potassium chloride 0.35 4.7
Calcium chloride 0.14 1.3
Aerate for 60 min. with 95% oxygen/5% carbon dioxide,
2. 0.32 M Sucrose: 21.9 g of sucrose, bring to 200 ml.
3. Serotonin creatinine sulfate 0.1 mM stock solution is
made up in 0.01 N hydrochloric acid. This is used to
dilute the specific activity of radiolabeled
[H^3 ]-5-hydroxytryptamine (serotonin).
4. 5-[1,2-^3 H(N)]-Hydroxytryptamine creatinine sulfate
(Serotonin), specific activity 20-30 Ci/mmol is used.
The final desired concentration of
[H^3 ]-5-hydroxytryptamine in the assay is 50 nM. The
dilution factor is 0.8. Therefore, the KHBB is made up to
contain 62.5 nM [H^3 ]-5-hydroxy-tryptamine.
A) 56.1 μl of 0.1 mM 5-hydroxytryptamine
*B) 0.64 nmole of 5-hydroxytryptamine
5. For most assays, a 1 mM stock solution of the test com-
pound is made up in suitable solvent and serially diluted
such that the final concentration in the assay ranges from
2 × 10^-8 to 2 × 10^-5 M. Seven concentrations
for each assay. Higher or lower concentrations may be
used depending on the potency of the compound.
Male Wistar rats are decapitated and the brain rapidly
removed. […]
scintillation vials, and counted in 10 ml of Liquiscint […]

## CN(N)CCC(Oc1ccc(C(F)(F)F)cc1)c1ccccc1 (stereo not shown) [2-Methyl-2-[3-phenyl-3-[(4-trifluoromethyl)phenoxy]propyl]hydrazine maleate]
  pIC50: 5.91
